Experimental data taken from patent US7030104B2, “Topical oestroprogestational compositions with a systemic effect” (Laboratoire Theramex, priority 2000, dated 2006).

What was measured:
[1] = In vitro percutaneous passage on static diffusion cells (Franz cells), radiolabelled active ingredients; type: in vitro ADME, human; conditions: 24 hours
Procedure: Percutaneous absorption is studied in vitro on static diffusion cells, called Franz cells™. The percutaneous passage of the active ingredients is evaluated by measuring the radioactivity using labelled molecules (carbon 14, tritium). The overall quantity of active ingredient absorbed is measured, at different times, in the receiving compartment.
A cutaneous biopsy is horizontally maintained between the two parts of the cell thus delimiting on both sides of the sample, two compartments: one of them epidermic, constituted by a glass cylinder, of a defined area (1.76 cm^2), placed on the upper surface of the skin; the other dermic (or receptor), on the underside of the biopsy, comprises a fixed volume reservoir with a side nozzle. The two compartments are kept in place through the intermediary of a clamp. […]
The preparations to be studied are applied in weighed quantities, using a spatula over all of the epidermal area circumscribed by the glass cone. […] The samples removed are treated with Pico-fluorine 40™ scintillation liquid and the activity measured using a liquid scintillation counter. […]
The percutaneous passage of the active ingredients is evaluated at the time of each sampling by measuring the cumulative quantity (μg) of active ingredient as a function of time.

[2] = known pharmacokinetics; Patent FR 2.776.191; cited from earlier work

| change of percutaneous penetration of estradiol caused by presence of nomegestrol acetate ([1]; gel G29-299 (NAc + E2) versus TX11323 (E2 only)) [%] | change of percutaneous passage of nomegestrol acetate caused by presence of estradiol ([1]; gel G29-299 (NAc + E2) versus G29-287 (NAc only)) | SMILES | plasmatic concentration of nomegestrol acetate for clinical effectiveness (endometrial effect through bleedings) [2] [ng/mL] |
| --- | --- | --- | --- |
| −51 | – | C[C@]12CC[C@@H]3c4ccc(O)cc4CC[C@H]3[C@@H]1CC[C@@H]2O [estradiol, 17beta estradiol] | – |
| – | +39% | CC(=O)O[C@]1(C(C)=O)CC[C@H]2[C@@H]3C=C(C)C4=CC(=O)CC[C@@H]4[C@H]3CC[C@@]21C [nomegestrol acetate] | ≥ 0.7 |
